# Laboratory results as given in patent US10138233B2, “Imidazole compounds as modulators of FSHR and uses thereof” (Merck Patent GmbH, priority 2013, dated 2018).
# Target: T1, FSHR (Homo sapiens, UniProt P23945)
# T1 construct: expressed in transfected cells; host or cells: CHO cells, clone Cho-FSHR-LUC-1-1-43
# T1 sequence (P23945 18-695): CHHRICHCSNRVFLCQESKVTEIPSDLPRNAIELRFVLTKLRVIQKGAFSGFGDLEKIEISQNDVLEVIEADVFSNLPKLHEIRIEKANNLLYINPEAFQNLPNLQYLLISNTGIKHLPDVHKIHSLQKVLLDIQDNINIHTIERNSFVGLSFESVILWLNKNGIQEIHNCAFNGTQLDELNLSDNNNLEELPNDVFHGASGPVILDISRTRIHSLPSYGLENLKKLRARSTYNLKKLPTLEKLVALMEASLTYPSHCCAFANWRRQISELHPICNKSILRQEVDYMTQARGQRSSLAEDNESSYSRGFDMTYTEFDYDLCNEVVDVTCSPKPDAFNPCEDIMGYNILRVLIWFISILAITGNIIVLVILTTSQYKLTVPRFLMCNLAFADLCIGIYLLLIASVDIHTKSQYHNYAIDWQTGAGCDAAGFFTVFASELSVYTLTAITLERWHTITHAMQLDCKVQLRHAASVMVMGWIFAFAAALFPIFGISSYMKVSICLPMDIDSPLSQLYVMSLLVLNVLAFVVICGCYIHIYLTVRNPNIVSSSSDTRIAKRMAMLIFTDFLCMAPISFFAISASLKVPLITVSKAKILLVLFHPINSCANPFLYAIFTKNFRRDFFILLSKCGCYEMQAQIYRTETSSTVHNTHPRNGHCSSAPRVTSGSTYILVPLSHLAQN
# Experiment: EC50 of cyclic AMP production in CHO FSHR cells + EC20 FSH (Assay A)
# Assay type: cell-based
# Settings: CHO-FSHR-LUC cells, in presence of EC20 FSH, cAMP HTRF, 1 h 37° C.
# Method: EC50 of cyclic AMP production in CHO FSHR cells+EC20 FSH (Assay A)
# 2500 Cho-FSHR-LUC-1-1-43 cells were plated per well in 5 μl of phenol red free DMEM/F12+1% FBS. […] Cells were assayed by adding 100 μl of 2×EC20 FSH/IBMX in DMEM/F12+0.1% BSA) by Multidrop to 2 μl of test compound stamped in 384 well plates (compounds are diluted 1:50). […] The compound plate map was as follows: Column 1: 2 μl of DMSO; Column 2: 2 μl of DMSO; Columns 3-12 and 13-24: 2 μl of test compound, diluted 1:4 in 100% DMSO, or 2 μl of FSH, diluted 1:4 in DMEM/F12+0.1% BSA. The starting concentration for FSH was 50 nM (final concentration was 0.5 nM). […] 10 μl of mixed HTRF (CisBio #62AM4PEC) reagents were added per well and incubated at room temperature for 1 h. The plates were read on Envision using the cAMP HTRF—low volume 384 well protocol. […] Values given in percent (%) indicate the percental effect (response) at a certain concentration of agonist relative to the maximum response of the FSH standard.
row,EC50,SMILES
1,1000 to 5000 nM,"COc1cc2c(cc1CC(C)C)-n1c(-c3cn[nH]c3C)nc(C(=O)N3CCOCC3(C)C)c1CC2 [Compound 27, (3,3-Dimethyl-morpholin-4-yl)-[8-isobutyl-7-methoxy-1-(5-methyl-1H-pyrazol-4-yl)-4,5-dihydro-imidazo[1,5-a]quinolin-3-yl]-methanone]"
2,1000 to 5000 nM,COc1cc2c(cc1OC(C)C)-n1c(-c3cccc4cn[nH]c34)nc(C(=O)N3CCOCC3(C)C)c1CC2 [Compound 89]
3,< 100 nM,"COc1cc2c(cc1-c1n[nH]c(=S)o1)-n1c(-c3cccs3)nc(C(=O)N(C)C(C)(C)C)c1CC2 [Compound 133, 7-Methoxy-1-thiophen-2-yl-8-(5-thioxo-4,5-dihydro-[1,3,4]oxadiazol-2-yl)-4,5-dihydro-imidazo[1,5-a]quinoline-3-carboxylic acid tert-butyl-methyl-amide]"
4,100 to 1000 nM,"COc1cc2c(cc1CC(C)C)-n1c(-c3cc[nH]c3)nc(C(=O)N3CCOCC3(C)C)c1CC2 [Compound 28, (3,3-Dimethyl-morpholin-4-yl)-[8-isobutyl-7-methoxy-1-(1H-pyrrol-3-yl)-4,5-dihydro-imidazo[1,5-a]quinolin-3-yl]-methanone]"
5,100 to 1000 nM,COc1cc2c(cc1OC(C)C)-n1c(-c3ccsc3C)nc(C(=O)N3CCOCC3(C)C)c1CC2 [Compound 106]
6,100 to 1000 nM,COc1cc2c(cc1OC(C)C)-n1c(-c3cccc(F)c3)nc(C(=O)N(C)C(C)(C)C)c1CC2 [Compound 66]
7,1000 to 5000 nM,COc1cc2c(cc1OC(C)C)-n1c(-c3ccc(C#N)c(C(F)(F)F)c3)nc(C(=O)N3CCOCC3(C)C)c1CC2 [Compound 124]
8,< 100 nM,COc1cc2c(cc1OC(C)C)-n1c(Br)nc(C(=O)N3CCCN(C(=O)C4CCC4)CC3)c1CC2 [Compound 3]
9,100 to 1000 nM,COc1cc2c(cc1OC(C)C)-n1c(-c3cc(C)nn3C)nc(C(=O)N3CCOCC3(C)C)c1CC2 [Compound 42]
10,100 to 1000 nM,"COc1cc2c(cc1OC)-n1c(-c3cccs3)nc(C(=O)N(C)C(C)(C)C)c1CC2 [Compound 1, 7,8-Dimethoxy-1-thiophen-2-yl-4,5-dihydro-imidazo[1,5-a]quinoline-3-carboxylic acid tert-butyl-methyl-amide]"
11,> 5000 nM,COc1cc2c(cc1OC(C)C)-n1c(-c3ccc(F)c(C#N)c3)nc(C(=O)N3CCOCC3(C)C)c1CC2 [Compound 107]
12,1000 to 5000 nM,COc1cc2c(cc1OC(C)C)-n1c(-c3cccc(OC)c3F)nc(C(=O)N3CCOCC3(C)C)c1CC2 [Compound 112]
13,100 to 1000 nM,"COc1cc2c(cc1CC(C)C)-n1c(-c3ccsc3)nc(C(=O)N(C)C(C)(C)C)c1CC2 [Compound 18, 8-Isobutyl-7-methoxy-1-thiophen-3-yl-4,5-dihydro-imidazo[1,5-a]quinoline-3-carboxylic acid tert-butyl-methyl-amide]"
14,100 to 1000 nM,COc1cc2c(cc1OC(C)C)-n1c(-c3cccc(C(F)(F)F)c3)nc(C(=O)N(C)C(C)(C)C)c1CC2 [Compound 68]
15,100 to 1000 nM,"COc1cc2c(cc1-c1ccn(C)n1)-n1c(-c3ccc(C)s3)nc(C(=O)N3CCOCC3(C)C)c1CC2 [Compound 147, (3,3-dimethylmorpholino)(7-methoxy-8-(1-methyl-1H-pyrazol-3-yl)-1-(5-methylthiophen-2-yl)-4,5-dihydroimidazo[1,5-a]quinolin-3-yl)methanone]"
16,100 to 1000 nM,"COc1cc2c(cc1-c1ccn(C)n1)-n1c(-c3ccsc3)nc(C(=O)N(C)C(C)(C)C)c1CC2 [Compound 77, 7-Methoxy-8-(1-methyl-1H-pyrazol-3-yl)-1-thiophen-3-yl-4,5-dihydro-imidazo[1,5-a]quinoline-3-carboxylic acid tert-butyl-methyl-amide]"

row,EC50,SMILES
1,> 5000 nM,"COc1cc2c(cc1OC(C)C)-n1c(C3CCOCC3)nc(C(=O)N3CCOCC3(C)C)c1CC2 [Compound 84, (3,3-Dimethyl-morpholin-4-yl)-[8-isopropoxy-7-methoxy-1-(tetrahydro-pyran-4-yl)-4,5-dihydro-imidazo[1,5-a]quinolin-3-yl]-methanone]"
2,1000 to 5000 nM,COc1cc2c(cc1OC(C)C)-n1c(-c3[nH]ncc3C)nc(C(=O)N3CCOCC3(C)C)c1CC2 [Compound 54]
3,> 5000 nM,COc1cc2c(cc1OC(C)C)-n1c(-c3cccc4c3OCCO4)nc(C(=O)N3CCOCC3(C)C)c1CC2 [Compound 121]
4,1000 to 5000 nM,"COc1cc2c(cc1OC(C)C)-n1c(-c3cccs3)nc(C(=O)NC3(CO)COC3)c1CO2 [Compound 137, 8-Isopropoxy-7-methoxy-1-thiophen-2-yl-4H-5-oxa-2,9b-diaza-cyclopenta[a]naphthalene-3-carboxylic acid (3-hydroxymethyl-oxetan-3-yl)-amide]"
5,100 to 1000 nM,COc1cc2c(cc1OC(C)C)-n1c(-c3ccccc3Cl)nc(C(=O)N(C)C(C)(C)C)c1CC2 [Compound 67]
6,100 to 1000 nM,COc1cc2c(cc1OC(C)C)-n1c(-c3ccc(C)c(F)c3)nc(C(=O)N3CCOCC3(C)C)c1CC2 [Compound 126]
7,1000 to 5000 nM,COc1cc2c(cc1OC(C)C)-n1c(-c3cc(Cl)ccc3OC(F)(F)F)nc(C(=O)N3CCOCC3(C)C)c1CC2 [Compound 117]
8,< 100 nM,"COc1cc2c(cc1CC(C)C)-n1c(-c3cccs3)nc(C(=O)N3CCOCC34COC4)c1CC2 [Compound 56, (2,8-Dioxa-5-aza-spiro[3.5]non-5-yl)-(8-isobutyl-7-methoxy-1-thiophen-2-yl-4,5-dihydro-imidazo[1,5-a]quinolin-3-yl)-methanone]"
9,1000 to 5000 nM,"COC(=O)c1nc(C(=O)N2CCOCC2(C)C)c2n1-c1cc(OC(C)C)c(OC)cc1CC2 [Compound 144, 3-(3,3-Dimethyl-morpholine-4-carbonyl)-8-isopropoxy-7-methoxy-4,5-dihydro-imidazo[1,5-a]quinoline-1-carboxylic acid methyl ester]"
10,100 to 1000 nM,COc1cc2c(cc1OC(C)C)-n1c(-c3ccsc3)nc(C(=O)N3CCCN(C(=O)N4CCC4)CC3)c1CC2 [Compound 10]
11,> 5000 nM,"[2H]C([2H])([2H])OC1CCN(C(=O)c2nc(-c3cccs3)n3c2CCc2cc(OC)c(CC(C)C)cc2-3)C1 (centres unmarked) [Compound 33, (8-Isobutyl-7-methoxy-1-thiophen-2-yl-4,5-dihydro-imidazo[1,5-a]quinolin-3-yl)-(3-methoxy-d3-pyrrolidin-1-yl)-methanone]"
12,> 5000 nM,"COc1cc2c(cc1-c1ccn(C)n1)-n1c(-c3ccn(C)c3)nc(C(=O)N3CCOCC3(C)C)c1CC2 [Compound 73, (3,3-Dimethyl-morpholin-4-yl)-[7-methoxy-8-(1-methyl-1H-pyrazol-3-yl)-1-(1-methyl-1H-pyrrol-3-yl)-4,5-dihydro-imidazo[1,5-a]quinolin-3-yl]-methanone]"
13,> 5000 nM,COc1cc2c(cc1OC(C)C)-n1c(-c3cn(C)nc3C)nc(C(=O)N3CCOCC3(C)C)c1CC2 [Compound 36]
14,> 5000 nM,COc1cc2c(cc1OC(C)C)-n1c(-c3cnn(C4CCC4)c3)nc(C(=O)N3CCOCC3(C)C)c1CC2 [Compound 80]
15,1000 to 5000 nM,"COc1cc2c(cc1CC(C)C)-n1c(C3CCN(C)CC3)nc(C(=O)N(C)C(C)(C)C)c1CC2 [Compound 22, N-(tert-butyl)-8-isobutyl-7-methoxy-N-methyl-1-(1-methylpiperidin-4-yl)-4,5-dihydroimidazo[1,5-a]quinoline-3-carboxamide]"
16,< 100 nM,COc1cc2c(cc1OC(C)C)-n1c(-c3ccc(F)s3)nc(C(=O)N(C)C(C)(C)C)c1CC2 [Compound 14]
